Experimental data taken from patent US8003631B2, “Composition and method for the treatment of tauopathies” (Tautatis, Inc., priority 2004, dated 2011).

Key:
[1] = tested on: PHF-type tau hyperphosphorylation; assay: Titration of tau hyperphosphorylation inhibitors in okadaic acid-stimulated rat hippocampal brain slice model; assay type: cell-based; settings: okadaic acid provocation of PHF-markers
Text: Authentic PHF-type phosphorylation events virtually indistinguishable by all known molecular markers from what is seen in PHF-tau from human Alzheimer's disease brains is rapidly provoked in such brain slices by application of the phosphatase inhibitor okadaic acid (OA) [Gong et al., Brain Res. Brain Res. Protoc., 6, 134-140 (2001); WO 01/57535; WO 00/01699].
In okadaic acid-treated brain slices, most of the above pathological markers are modeled. For the detection of active inhibitor compounds, freshly prepared metabolically-active isolated slices, kept under constant oxygenation in a physiological buffer (artificial cerebrospinal fluid or Krebs-Ringer solution), are preincubated with a range of concentration of the compounds of general formula 1. The slices are then extracted with buffers stopping both kinase as well as phosphatase activities, and soluble supernatants of such tissue homogenates are then separated by SDS-PAGE and subjected to Western-blotting. […] The intensity of the signals can then be normalized to the amount of total tau in the sample by probing a sister blot with a phosphorylation insensitive tau antibody, followed by forming the intensity ratio of the respective phosphoepitope over total tau immunoreactivity which represent an accurate quantitative measure of the degree of phosphorylation defining a particular epitope. […]

[2] = cited from earlier work

## CCSCc1ccc2c(c1)c1c3c(c4c5cc(CSCC)ccc5n5c4c1n2[C@H]1C[C@](O)(C(=O)OC)[C@]5(C)O1)CNC3=O [CEP-1347]
[1]
  activity in the brain slice hyperphosphorylation model: inactive

## COC(=O)[C@@]1(O)C[C@H]2O[C@]1(C)n1c3ccccc3c3c4c(c5c6ccccc6n2c5c31)C(=O)NC4 [K252a]
[2]; concentration in brain over concentration in plasma at a given time point
  brain/plasma ratio: below 1
[2]; rats, oral
  maximal oral bioavailability: 13%

## CN[C@@H]1C[C@H]2O[C@@](C)([C@@H]1OC)n1c3ccccc3c3c4c(c5c6ccccc6n2c5c31)C(=O)NC4 [staurosporine]
[1]
  activity in the brain slice hyperphosphorylation model: inactive
